Experimental data reported in patent publication US11986513B2, “GAL(1-15) and analogues thereof for use in the prevention and/or treatment of alcohol-related effects and disorders” (UNIVERSIDAD DE MÁLAGA, priority 2017, dated 2024).

Experiments:
Format in all cases: in vivo, rat
GALR2 = GALR2 mRNA expression in the corpus striatum during voluntary ethanol consumption (RT-PCR); conditions: 3 nmol i.c.v., 2 hours after administration, two-bottle choice rats, versus vehicle/EtOH (p=0.101)
Procedure: (§1) Groups of rats from the two-bottle choice paradigm were killed by decapitation 2 hours after a single i.c.v. administration of 3 nmol of GAL(1-15) or vehicle, and the corpus striatum was dissected and frozen on solid CO2 until mRNA expression analysis.

GALR1 = GALR1 mRNA expression in the corpus striatum during voluntary ethanol consumption (RT-PCR); conditions: 3 nmol i.c.v., 2 hours after administration, two-bottle choice rats, versus vehicle/EtOH
Procedure: as §1

C-Fos = C-Fos mRNA expression in the corpus striatum during voluntary ethanol consumption (RT-PCR); conditions: 3 nmol i.c.v., 2 hours after administration, two-bottle choice rats, versus vehicle/EtOH
Procedure: as §1

rats [1] = test: Locomotor activity (open field), ethanol-reduced locomotion; conditions: GAL(1-15) 3 nmol i.c.v. 20 min before test
Procedure: In this experiment, the effects of GAL(1-15) (3 nmol) on ethanol-reduced locomotion (1.75 g/kg; intraperitoneal (i.p.)) (Vallof et al., 2016) were investigated. Locomotor activity was recorded in rat open field (100×100×50 cm) where animals were individually placed and left to freely explore. Their behaviour was recorded over a 30-minute period by ceiling-mounted video camera, and locomotor activity was analysed using the video-tracking software EthovisionXT. After each assay, all surfaces were cleaned with a paper towel and 70% ethanol solution. For locomotor activity, total distance travelled (cm) and mean speed (cm/s) were recorded. Groups of rats were administered via i.c.v. GAL(1-15) or vehicle 20 minutes before the test; i.p. ethanol (1.75 g/kg) or saline solution administration was performed 5 minutes before the test.

rats [2] = test: Ethanol self-administration (operant model)
Procedure: The use of operant models as substance self-administration models are widely used for performing motivation or hedonic studies. In these models, the animal has to “work” to obtain the reinforcing substance by pressing a lever, which allows the investigator to observe the animal's interest in the substance, as well as to learn the effect of the substance as a reward for the animal (Leeman et al., 2010). The method is performed according to earlier protocols (Alén et al., 2009) with some modifications. The test consists of a two-week training phase in which rats are kept the first 2 to 4 days with a water restriction to facilitate the learning of the task of pressing the lever to obtain the reinforcement. Animals are exposed daily to 30-minute sessions in self-administration boxes (Letica instruments). The boxes are equipped with two retractable levers located on both sides of a liquid dispenser (0.1 mL) positioned in the centre of the box panel. […] Once the training period is over, where all the animals have proven to have learned the task, daily sessions continue to be performed until establishing a stable baseline. Then training begins for ethanol consumption, and for this purpose a gradual increase in ethanol concentration (from 2% to 10%) is performed at the same time as a gradual reduction in saccharin concentration (from 0.16% to 0%) over several days, where after this period the animals become accustomed consuming 10% ethanol. After several sessions to establish a stable baseline, the animals are subjected to placement of a chronic intracerebroventricular cannula, leaving them for several days after this intervention to again establish a stable ethanol consumption baseline. Then the test is performed, consisting of a 30-minute session after administration of the different treatments, recording the number of active lever presses, as well as the number of rewards (FIG. 7).
Two sets of ethanol self-administration experiments were performed. In the first set of experiments, a dose-response curve of GAL(1-15) was performed. For this, groups of rats received i.c.v. GAL(1-15) at doses of 0.3, 1, and 3 nmol, or vehicle. In the second set of experiments, the effect of GAL 3 nmol and GAL(1-15) 3 nmol in ethanol self-administration were compared.

rats [3] = test: Two-bottle choice test for voluntary ethanol consumption and preference; conditions: for preference for ethanol compared with GAL / ethanol intake compared with GAL: 3 nmol i.c.v. each
Procedure: Male Sprague—Dawley rats (body weight 225-250 g, age 8 weeks) were obtained from Criffa and maintained in a humidity-controlled and temperature-controlled (20-22° C.) room. The rats in the two-bottle choice paradigm were during the entire protocol maintained on a 12-hour reversed light/dark cycle (lights off at 10 am) whereas the other rats were kept on 12-hour light/dark cycle. The animals had free access to food pellets and tap water. All animal experimentation was conducted in accordance with the University of Malaga Guidelines for the Care and Use of Laboratory Animals.
This protocol has been used previously (Diaz-Cabiale et al., 2011; Millon et al., 2015). Briefly, the rats were anaesthetised intraperitoneally with Equitesin (3.3 ml/kg body weight) and stereotaxically implanted with a unilateral chronic 22-gauge stainless steel guide cannula into the right lateral cerebral ventricle using the following coordinates: 1.4 mm lateral and 1 mm posterior to bregma and 3.6 mm below the surface of the skull (Paxinos, 1986). After surgery, animals were individually housed and allowed a recovery period of 7 days. The injections in the lateral ventricle were performed using a 26-gauge stainless steel injection cannula connected via PE-10 tubing to a Hamilton syringe. The total volume was 5 μl per injection, and the infusion time was 1 minute.
The solutions were prepared freshly, and the peptides were dissolved in artificial cerebrospinal fluid (with a composition of […], […] NaH2CO3, […] KCl, 0.5 nM KH2PO4, 1.2 nM CaCl2, 1.8 nM MgCl2, 0.5 nM Na2SO4, and 5.8 nM D-glucose, pH 7.4). GAL was obtained from NeoMPS, Strasbourg, France; GAL(1-15) and the GALR2 receptor antagonist M871 were obtained from Tocris Bioscience, Bristol, UK.
The two-bottle choice test was used to determine the voluntary ethanol consumption of rats as described previously (Castilla-Ortega et al., 2016). Briefly, after 7 days of water consumption (both bottles), a choice between water and increasing concentrations of ethanol [3, 6, and 10% (v/v)] was offered for 7 days each. A choice between 10% ethanol (v/v) and water was offered for several days until reaching a stable baseline value. Water and ethanol consumption were recorded daily. The position of the bottles was changed every day to avoid preference for location. Water intake (g/kg), ethanol intake (g/kg), and preference ([ethanol consumption/total fluid [water plus ethanol] consumption×100]) were calculated for each animal. Throughout the experiment, evaporation and spillage estimates were calculated using an empty cage with two bottles, one containing water and the other containing the appropriate ethanol solution. In the experiments, a choice between ethanol (10%) and water was offered.
Three sets of experiments were conducted in the two bottle choice paradigm. In the first set of experiments, a dose-response curve of GAL(1-15) was performed. For this, groups of rats received i.c.v. 1 nmol or 3 nmol of GAL(1-15), or vehicle 2, 14, and 24 hours before the measurements. In the second set of experiments, the effects of the two-bottle choice test for GAL and GAL(1-15) were compared. For this, groups of rats received i.c.v. 3 nmol of GAL, 3 nmol of GAL(1-15), or vehicle, 2, 14, and 24 hours before the test. In the last set of experiments, the role of GALR2 was studied; for this, groups of rats received i.c.v. 3 nmol of GAL(1-15) combined with 3 nmol of GALR2 […] before the measurements.

Rab5 = Rab5 mRNA expression in the corpus striatum during voluntary ethanol consumption (RT-PCR); conditions: 3 nmol i.c.v., 2 hours after administration, two-bottle choice rats, versus vehicle/EtOH
Procedure: as §1

[4] = 3 nmol i.c.v. each, 2, 14, 24 hours
[5] = i.c.v., any dose (1 or 3 nmol), any time point

Gly-Trp-Thr-Leu-Asn-Ser-Ala-Gly-Tyr-Leu-Leu-Gly-Pro-His-Ala (GWTLNSAGYLLGPHA; General formula for GAL 1-15) [GAL(1-15)]
GALR2 expression in corpus striatum (GALR2): slight reduction | GALR1 mRNA levels in corpus striatum (GALR1): significant decrease | mRNA levels of C-Fos in corpus striatum (C-Fos): significant increase | distance travelled (rats [1]; rats given i.p. ethanol 1.75 g/kg): decreased | distance travelled (rats [1]; rats given systemic saline solution): no such effects were observed | mean speed (rats [1]; rats systemically treated with ethanol 1.75 g/kg): decreased | number of reinforcements in ethanol self-administration (rats [2]; 0.3 nmol i.c.v. 15 min before the test): no effect | number of ethanol reinforcements (rats [2]; 1 nmol i.c.v. 15 min before the test, versus control): significant decrease | number of ethanol reinforcements (reduction) (rats [2]; 3 nmol i.c.v. 15 min before the test, versus control): even more pronounced | number of ethanol reinforcements compared with GAL (rats [2]; 3 nmol i.c.v. each, 15 min before the test): significantly reduces | preference for ethanol (rats [3]; 1 nmol i.c.v.): no effects | ethanol intake (rats [3]; 1 nmol i.c.v., all the time points analysed (2, 14, 24 hours)): no effect | food intake, difference between GAL and GAL(1-15) (rats [3]; [4]): No differences were found | water intake, difference between GAL and GAL(1-15) (rats [3]; [4]): No differences were found | preference for ethanol compared with GAL (rats [3]; 2 hours after administration): decreased | ethanol intake compared with GAL (rats [3]; 2 hours after injection): significantly decreased | ethanol intake compared with GAL (rats [3]; 14 hours after injection): significantly decreased | ethanol intake compared with GAL (rats [3]; 24 hours after injection): significantly decreased | preference for ethanol compared with GAL (rats [3]; 24 hours later): maintained | decrease in the preference for ethanol (rats [3]; 3 nmol i.c.v., 2 hours after administration): 90% | ethanol intake (rats [3]; 3 nmol i.c.v., 2 hours after administration, 10% ethanol vs water, versus vehicle): significantly decreased | ethanol intake (rats [3]; 3 nmol i.c.v., 14 hours after administration, 10% ethanol vs water, versus vehicle): significantly decreased | preference for ethanol (decrease) (rats [3]; 3 nmol i.c.v., 24 hours): maintained | ethanol intake (rats [3]; 3 nmol i.c.v., 24 hours after administration, 10% ethanol vs water, versus vehicle): significantly decreased | food intake (rats [3]; [5]): no differences were found | water intake (rats [3]; [5]): no differences were found | mRNA levels of Rab5 in corpus striatum (Rab5): significant increase
